From patent US20220152072A1, “Selective Inhibitors Of Protein Arginine Methyltransferase 5 (PRMT5)” (Prelude Therapeutics, Incorporated, priority 2019, published 2022) come the findings set out here.

A short description of series [1]: In vivo pharmacokinetics in rat, i.v. and p.o. The note with it: rat (SD, male, non-fasted), average, N=3. The procedure:
In a rat (SD, male, non-fasted) non-crossover PK study, Example 47 was dosed at 1 mg/kg (DMA: 20% HPBCD=5:95, solution) via i.v. administration (N=3) and 1 mg/kg (0.5% Na CMC+0.5% Tween80, solution) via oral gauge (p.o.) (N=3).

For another series, the target named is PRMT5/MEP50 complex (Homo sapiens, UniProt O14744). In words: Biochemical assay: PRMT5/MEP50 methylation of histone H2A with 3H-SAM, filter plate scintillation. The note with it: PRMT5/MEP50 5 nM, histone H2A 5 μM, SAM 1 μM. On the procedure: Compounds were solubilized and 3-fold diluted in 100% DMSO. […] Standard reactions were performed in a total volume of 50 μl in assay buffer, with histone H2A (5 μM final) as substrate. To this was added the PRMT5/MEP50 complex diluted to provide a final assay concentration of 5 nM and the compounds were allowed to preincubate for 15 to 20 minutes at room temperature. The reaction was initiated by adding S-[3H-methyl]-adenosyl-L-methionine (PerkinElmer) to final concentration of 1 μM. Following a 60 minutes incubation at 30° C., the reaction was stopped by adding 100 μL of 20% TCA. Each reaction was spotted onto filter plate (MultiScreen FB Filter Plate, Millipore), and washed 5 times with PBS buffer, Scintillation fluid was added to the filter plate and read in a scintillation counter. IC50 values were determined by fitting the data to the standard 4 parameters with Hill Slope using GraphPad Prism software.

Another series can be described thus: FaSSIF solubility (HPLC). The note with it: positive control, range. On the procedure:
Compounds were first dispersed in freshly prepared FaSSIF (http://biorelevant.com/site_media/upload/documents/How_to_make_FaSSIF_FeSSIF_and_FaSSGF.pdf) buffer in 1 mg/mL respectively, and the standard samples were prepared by preparing 1 mg/mL of test compounds in DMSO. The compounds were then sufficient mixed by vortex mixer for 30 sec, and agitated at 25° C. using 300 rpm form 4 hour in thermo mixer. After incubation, the prepared samples were centrifuged at 10000 rpm for 10 min to remove the undissolved solid, the resulting supernatants were applied to HPLC.
S=Csmp=Cstd*(Asmp/Astd)*(Vstd/Vsmp)
Where C is the sample concentration in μg/mL, A is the peak area, and V is the injection volume.

PRMT5/MEP50 complex, sequence (O14744 whole entry, species assumed): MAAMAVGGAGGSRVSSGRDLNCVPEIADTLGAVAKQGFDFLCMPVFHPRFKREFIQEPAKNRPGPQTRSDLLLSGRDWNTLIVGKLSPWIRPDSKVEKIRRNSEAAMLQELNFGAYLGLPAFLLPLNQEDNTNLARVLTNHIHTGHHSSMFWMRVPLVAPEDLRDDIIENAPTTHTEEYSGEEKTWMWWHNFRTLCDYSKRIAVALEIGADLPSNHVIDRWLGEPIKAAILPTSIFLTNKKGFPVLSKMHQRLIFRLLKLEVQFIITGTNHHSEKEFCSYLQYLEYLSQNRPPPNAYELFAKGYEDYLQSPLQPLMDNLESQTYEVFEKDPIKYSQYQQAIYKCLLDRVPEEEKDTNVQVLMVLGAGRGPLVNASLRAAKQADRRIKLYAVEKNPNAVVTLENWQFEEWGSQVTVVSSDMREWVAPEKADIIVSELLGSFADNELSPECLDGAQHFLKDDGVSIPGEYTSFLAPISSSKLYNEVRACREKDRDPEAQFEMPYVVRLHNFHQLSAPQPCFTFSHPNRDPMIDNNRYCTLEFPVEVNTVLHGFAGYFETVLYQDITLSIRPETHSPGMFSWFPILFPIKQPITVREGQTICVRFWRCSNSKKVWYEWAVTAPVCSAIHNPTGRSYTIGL
PRMT5/MEP50 complex, sequence (Q9BQA1 whole entry partner, species assumed): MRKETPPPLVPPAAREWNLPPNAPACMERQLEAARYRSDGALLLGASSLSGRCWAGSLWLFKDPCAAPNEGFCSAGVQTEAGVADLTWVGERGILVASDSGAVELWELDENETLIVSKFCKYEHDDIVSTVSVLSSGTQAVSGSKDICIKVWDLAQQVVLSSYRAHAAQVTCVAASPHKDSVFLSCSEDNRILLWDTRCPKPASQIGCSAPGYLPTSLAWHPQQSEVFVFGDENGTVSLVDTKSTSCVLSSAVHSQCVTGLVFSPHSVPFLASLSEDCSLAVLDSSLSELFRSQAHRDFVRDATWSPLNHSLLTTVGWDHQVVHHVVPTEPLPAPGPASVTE

In series [1] (1 mg/kg i.v.), `C[C@@]1(O)[C@@H]([C@H](O)c2ccc(Cl)c(Cl)c2)O[C@@H](n2ccc3c(N)ncnc32)[C@@H]1O` [Example 47, (2R,3S,4R,5R)-5-(4-amino-7H-pyrrolo[2,3-d]pyrimidin-7-yl)-2-((R)-(3,4-dichlorophenyl) (hydroxy)methyl)-3-methyltetrahydrofuran-3,4-diol] registered a T1/2 of 4.1 h, a Vss of 3.1 L/kg and a blood clearance of 8.8 mL/min/kg. In addition, the “dose normalized AUC” value in series [1] (1 mg/kg p.o.) was found to be 3246 ng·kg·h/mL/mg.

In general, IC50 refers to the concentration needed to halve the response being measured. A low value points to greater potency in that assay. For the compound `C[C@@]1(O)[C@@H]([C@@H](O)c2ccc(Cl)c(Cl)c2)O[C@@H](n2ccc3c(N)ncnc32)[C@@H]1O` [Example 66, (2R,3S,4R,5R)-5-(4-amino-7H-pyrrolo[2,3-d]pyrimidin-7-yl)-2-((S)-(3,4-dichlorophenyl) (hydroxy)methyl)-3-methyltetrahydrofuran-3,4-diol], the IC50 against PRMT5/MEP50 complex came to 707 nM.

With `CC(=O)CC(c1ccccc1)c1c(O)c2ccccc2oc1=O` (stereo not drawn) [Warfarin], the “FaSSIF solubility (positive controls)” value in the series “FaSSIF solubility (HPLC)” is 10 to 25 µg/mL.
